Where a name gives a salt, the structure may show the parent alone. Read-outs that look alike come from different tables or passages of the source.
Legend:
Assay type in all cases: biochemical
[1] = target: TNF-α converting enzyme (TACE) (Homo sapiens, UniProt P78536); test: TACE inhibition (fluorescent peptidyl substrate)
MMP-13 = MMP-13 (Homo sapiens, UniProt P45452); test: MMP-13 inhibition (thiopeptide or fluorescent peptide substrate)
MMP-1 = target: T1, MMP-1 (Homo sapiens, UniProt P03956); test: MMP-1 inhibition (thiopeptide or fluorescent peptide substrate)
T1 sequence (P03956 100-469): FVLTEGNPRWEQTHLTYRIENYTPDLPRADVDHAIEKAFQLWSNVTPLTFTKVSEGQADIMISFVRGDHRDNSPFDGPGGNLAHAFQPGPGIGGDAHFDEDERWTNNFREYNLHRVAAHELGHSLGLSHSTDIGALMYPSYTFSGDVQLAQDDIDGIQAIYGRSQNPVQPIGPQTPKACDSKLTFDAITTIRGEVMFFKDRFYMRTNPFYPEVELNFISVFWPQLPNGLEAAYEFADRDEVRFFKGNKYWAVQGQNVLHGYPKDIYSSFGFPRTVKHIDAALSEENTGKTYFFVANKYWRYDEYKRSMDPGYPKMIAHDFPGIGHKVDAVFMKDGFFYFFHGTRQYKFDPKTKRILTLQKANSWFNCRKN
Protocol: The enzyme activity is measured by the rate of the color increase. The thiopeptide substrate is made up fresh as a 20 mM stock in 100% DMSO and the DTNB is dissolved in 100% DMSO as a 100 mM stock and stored in the dark at room temperature. Both the substrate and DTNB are diluted together to 1 mM with substrate buffer (50 mM HEPES pH 7.5, 5 mM CaCl2) before use. The stock of enzyme is diluted with buffer (50 mM HEPES, pH 7.5, 5 mM CaCl2, 0.02% Brij) to the desired final concentration.
Alternatively, a fluorescent peptide substrate is used. In this test procedure, the peptide substrate contains a fluorescent group and a quenching group. Upon cleavage of the substrate by an MMP, the fluorescence that is generated is quantitated on the fluorescence plate reader. The assay is run in HCBC assay buffer (50 mM HEPES, pH 7.0, 5 mM Ca^+2, 0.02% Brij, 0.5% Cysteine), with human recombinant MMP-1, MMP-9, or MMP-13. […] For the assay, substrate and enzymes are diluted in HCBC buffer to the desired concentrations. Compounds are added to the 96 well plate containing enzyme and the reaction is started by the addition of substrate.
For either the thiopeptide or fluorescent peptide test procedures, the slope of the line is calculated and represents the reaction rate. The linearity of the reaction rate is confirmed (r^2>0.85). The mean (x±sem) of the control rate is calculated and compared for statistical significance (p<0.05) with drug-treated rates using Dunnett's multiple comparison test.

[2] = Table 11, read-out: MMP-13 IC50
[3] = Table 10, read-out: MMP-13 IC50

Chain of TNF-α converting enzyme (TACE) (P78536 215-824, species assumed): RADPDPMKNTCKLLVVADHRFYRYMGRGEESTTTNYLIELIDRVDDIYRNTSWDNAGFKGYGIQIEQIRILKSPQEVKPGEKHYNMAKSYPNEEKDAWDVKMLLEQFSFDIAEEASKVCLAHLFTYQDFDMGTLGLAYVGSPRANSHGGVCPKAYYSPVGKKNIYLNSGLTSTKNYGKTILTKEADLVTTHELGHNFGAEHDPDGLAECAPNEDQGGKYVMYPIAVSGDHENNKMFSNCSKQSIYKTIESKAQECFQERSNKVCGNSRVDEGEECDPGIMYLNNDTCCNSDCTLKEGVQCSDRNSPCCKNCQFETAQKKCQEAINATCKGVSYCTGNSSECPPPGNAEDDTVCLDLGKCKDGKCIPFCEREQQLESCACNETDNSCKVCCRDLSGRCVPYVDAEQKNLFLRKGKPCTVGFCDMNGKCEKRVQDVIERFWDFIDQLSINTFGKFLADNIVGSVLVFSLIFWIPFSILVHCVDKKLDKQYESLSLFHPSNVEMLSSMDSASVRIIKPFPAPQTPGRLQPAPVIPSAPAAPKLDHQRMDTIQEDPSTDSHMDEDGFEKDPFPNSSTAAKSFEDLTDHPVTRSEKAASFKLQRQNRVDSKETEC

CC#CCOc1ccc(S(=O)(=O)N2C[C@H](CC(=O)N3CCN(C)CC3)SC(C)(C)[C@@H]2C(=O)NO)cc1 [Example 283, (3S,6S)-4-{[4-(2-Butynyloxy)phenyl]sulfonyl}-N-hydroxy-2,2-dimethyl-6-[2-(4-methyl-1-piperazinyl)-2-oxoethyl]-3-thiomorpholinecarboxamide hydrochloride]
IC50 ([1]; Table 11, read-out: TACE IC50): 143 nM
IC50 (MMP-13; [2]): 23 nM
IC50 (MMP-1; Table 11, read-out: MMP-1 IC50): 28 nM

CC#CCOc1ccc(S(=O)(=O)N2CCSC3(CCN(Cc4ccccc4)CC3)C2C(=O)NO)cc1 (centres unmarked) [Example 241, 9-Benzyl-4-{[4-(2-butynyloxy)phenyl]sulfonyl}-N-hydroxy-1-thia-4,9-diazaspiro[5.5]undecane-5-carboxamide]
IC50 ([1]; Table 9, read-out: TACE IC50): 786 nM
IC50 (MMP-13; Table 9, read-out: MMP-13 IC50): 0.5 nM
IC50 (MMP-1; Table 9, read-out: MMP-1 IC50): 3.1 nM

CC#CCOc1ccc(S(=O)(=O)N(C)C(CSCc2cccnc2)C(=O)NO)cc1 (centres unmarked) [Example 155, 2-[(4-but-2-ynyloxy-Benenesulfonyl)-methyl-amino]-N-hydroxy-3-(pyridin-3-ylmethylsulfanyl)-butyramide]
IC50 (MMP-13; read-out: MMP-13 IC50): 4.8 nM

CC(=O)OCCCCC#CCOc1ccc(S(=O)(=O)N2CCSC(C)(C)[C@@H]2C(=O)NO)cc1 [Example 268, 7-[4-({(3S)-3-[(Hydroxyamino)carbonyl]-2,2-dimethylthiomorpholinyl}sulfonyl)phenoxy]-5-heptynyl Acetate]
IC50 ([1]; Table 10, read-out: TACE IC50): 78 nM
IC50 (MMP-13; [3]): 2.9 nM
IC50 (MMP-1; Table 10, read-out: MMP-1 IC50): 29 nM

CC1(C)SCCN(S(=O)(=O)c2ccc(OCC#CCCCCN)cc2)[C@H]1C(=O)NO [Example 253]
IC50 ([1]; Table 10, read-out: TACE IC50): 40 nM
IC50 (MMP-13; [3]): 7.3 nM
IC50 (MMP-1; Table 10, read-out: MMP-1 IC50): 92 nM

CC#CCOc1ccc(S(=O)(=O)NC(C(=O)NO)c2ccc(OCCOCCOC)cc2)cc1 (centres unmarked) [Example 210, 2-({[4-(2-Butynyloxy)phenyl]sulfonyl}amino)-N-hydroxy-2-{4-[2-(2-methoxyethoxy)ethoxy]phenyl}acetamide]
IC50 ([1]; read-out: TACE IC50): 17 nM
IC50 (MMP-13; read-out: MMP-13 IC50): 278 nM
IC50 (MMP-1; read-out: MMP-1 IC50): > 10000 nM

CC#CCOc1ccc(S(=O)(=O)N2CCCSC(C)(C)[C@@H]2C(=O)NO)cc1 [Example 173]
IC50 ([1]; read-out: TACE IC50): 111 nM
IC50 (MMP-13; read-out: MMP-13 IC50): 16 nM
IC50 (MMP-1; read-out: MMP-1 IC50): 20 nM

CC#CCOc1ccc(S(=O)(=O)NC(C(=O)NO)c2ccc(OCCc3scnc3C)cc2)cc1 (centres unmarked) [Example 208, 2-({[4-(2-Butynyloxy)phenyl]sulfonyl}amino)-N-hydroxy-2-{4-[2-(4-methyl-1,3-thiazol-5-yl)ethoxy]phenyl}acetamide]
IC50 ([1]; read-out: TACE IC50): 69 nM
IC50 (MMP-13; read-out: MMP-13 IC50): 230 nM
IC50 (MMP-1; read-out: MMP-1 IC50): > 10000 nM

CC#CCOc1ccc(S(=O)(=O)N2C[C@H](CC(=O)O)SC(C)(C)[C@@H]2C(=O)NO)cc1 [Example 278, [(2S,5S)-4-{[4-(2-Butynyloxy)phenyl]sulfonyl}-5-[(hydroxyamino)carbonyl]-6,6-dimethylthiomorpholinyl}acetic Acid]
IC50 ([1]; Table 11, read-out: TACE IC50): 20 nM
IC50 (MMP-13; [2]): 6.7 nM
IC50 (MMP-1; Table 11, read-out: MMP-1 IC50): 17 nM

CC#CCOc1ccc(S(=O)(=O)N2C[C@H](CC(=O)N(C)C)SC(C)(C)[C@@H]2C(=O)NO)cc1 [Example 281, (3S,6S)-4-{[4-(2-Butynyloxy)phenyl]sulfonyl}-6-[2-(dimethylamino)-2-oxoethyl]-N-hydroxy-2,2-dimethyl-3-thiomorpholinecarboxamide]
IC50 ([1]; Table 11, read-out: TACE IC50): 130 nM
IC50 (MMP-13; [2]): 23 nM
IC50 (MMP-1; Table 11, read-out: MMP-1 IC50): 50 nM

CC#CCOc1ccc(S(=O)(=O)N2CCCSC[C@@H]2C(=O)NO)cc1 [Example 174]
IC50 ([1]; read-out: TACE IC50): 20 nM
IC50 (MMP-13; read-out: MMP-13 IC50): 36 nM
IC50 (MMP-1; read-out: MMP-1 IC50): 408 nM

CC1(C)SCCN(S(=O)(=O)c2ccc(OCC#CCF)cc2)[C@H]1C(=O)NO [Example 264, (3S)-4-({4-[(4-Fluoro-2-butynyl)oxy]phenyl}sulfonyl)-N-hydroxy-2,2-dimethyl-3-thiomorpholine Carboxamide]
IC50 ([1]; Table 10, read-out: TACE IC50): 35 nM
IC50 (MMP-13; [3]): 2.5 nM
IC50 (MMP-1; Table 10, read-out: MMP-1 IC50): 11 nM

CC#CCOc1ccc(S(=O)(=O)N2C[C@H](CC(=O)NO)SC(C)(C)[C@@H]2C(=O)NO)cc1 [Example 279, (3S,6S)-4-{[4-(2-Butynyloxy)phenyl]sulfonyl}-N-hydroxy-6-[2-(hydroxyamino)-2-oxoethyl]-2,2-dimethyl-3-thiomorpholinecarboxamide]
IC50 ([1]; Table 11, read-out: TACE IC50): 46 nM
IC50 (MMP-13; [2]): 4.5 nM
IC50 (MMP-1; Table 11, read-out: MMP-1 IC50): 21 nM

C#CC#CCOc1ccc(S(=O)(=O)N2CCSC(C)(C)[C@@H]2C(=O)NO)cc1 [Example 263]
IC50 ([1]; Table 10, read-out: TACE IC50): 42 nM
IC50 (MMP-13; [3]): 11 nM
IC50 (MMP-1; Table 10, read-out: MMP-1 IC50): 5.7 nM

CC#CCOc1ccc(S(=O)(=O)N2C[C@H](CC(=O)N3CCOCC3)SC(C)(C)[C@@H]2C(=O)NO)cc1 [Example 282, (3S,6S)-4-{[4-(2-Butynyloxy)phenyl]sulfonyl}-N-hydroxy-2,2-dimethyl-6-[2-(4-morpholinyl)-2-oxoethyl]-3-thiomorpholinecarboxamide]
IC50 ([1]; Table 11, read-out: TACE IC50): 95 nM
IC50 (MMP-13; [2]): 20 nM
IC50 (MMP-1; Table 11, read-out: MMP-1 IC50): 25 nM

CC(C)(C)OC(=O)NCCCCC#CCOc1ccc(S(=O)(=O)N2CCSC(C)(C)[C@@H]2C(=O)NO)cc1 [Example 252, tert-Butyl 7-[4-({(3S)-3-[(Hydroxyamino)carbonyl]-2,2-dimethylthiomorpholinyl}sulfonyl)phenoxy]-5-heptynylcarbamate]
IC50 ([1]; Table 10, read-out: TACE IC50): 199 nM
IC50 (MMP-13; [3]): 4.3 nM
IC50 (MMP-1; Table 10, read-out: MMP-1 IC50): 87 nM

CC#CCOc1ccc(S(=O)(=O)N2CCN(C(=O)OC(C)(C)C)CCC2C(=O)NO)cc1 (centres unmarked) [Example 291, tert-Butyl 4-{[4-(2-Butynyloxy)phenyl]sulfonyl}-5[(hydroxyamino)carbonyl]-1,4-diazepane-1-carboxylate]
IC50 ([1]; read-out: TACE IC50): 74 nM
IC50 (MMP-1; read-out: MMP-1 IC50): 92 nM

CC1(C)SCCN(S(=O)(=O)c2ccc(OCC#Cc3ccccc3)cc2)[C@H]1C(=O)NO [Example 254, (3S)-N-Hydroxy-2,2-dimethyl-4-({4-[(3-phenyl-2-propynyl)oxy]phenyl}sulfonyl)-3-thiomorpholine Carboxamide]
IC50 ([1]; Table 10, read-out: TACE IC50): 173 nM
IC50 (MMP-13; [3]): 11 nM
IC50 (MMP-1; Table 10, read-out: MMP-1 IC50): 13 nM

CC#CCOc1ccc(S(=O)(=O)N2CCCS(=O)(=O)C[C@@H]2C(=O)NO)cc1 [Example 175]
IC50 ([1]; read-out: TACE IC50): 28 nM
IC50 (MMP-13; read-out: MMP-13 IC50): 50 nM
IC50 (MMP-1; read-out: MMP-1 IC50): 1030 nM

CC#CCOc1ccc(S(=O)(=O)N(C)C(C(=O)NO)C(C)C)cc1 (centres unmarked) [Example 9, 2-[(4-but-2-ynyloxy-Benzenesulfonyl)-methyl-amino]-N-hydroxy-3-methyl-butyramide]
IC50 ([1]; read-out: TACE IC50): 7.4 nM
IC50 (MMP-13; read-out: MMP-13 IC50): 4.5 nM
IC50 (MMP-1; read-out: MMP-1 IC50): 40 nM

CC#CCOc1ccc(S(=O)(=O)N2CCN(C)CCC2C(=O)NO)cc1 (centres unmarked) [Example 293, 4-{[4-(2-Butynyloxy)phenyl]sulfonyl}-N-hydroxy-1-methyl-1,4-diazepane-5-carboxamide]
IC50 ([1]; read-out: TACE IC50): 23 nM
IC50 (MMP-13; MMP-13 IC50): 21 nM
IC50 (MMP-1; read-out: MMP-1 IC50): 238 nM

C#CCOc1ccc(S(=O)(=O)N2CCSC(C)(C)[C@@H]2C(=O)NO)cc1 [Example 258, (3S)-N-Hydroxy-2,2-dimethyl-4-{[4-(2-propynyloxy)phenyl]sulfonyl}-3-thiomorpholine Carboxamide]
IC50 ([1]; Table 9, read-out: TACE IC50): 19 nM
IC50 (MMP-13; Table 9, read-out: MMP-13 IC50): 0.8 nM
IC50 (MMP-1; Table 9, read-out: MMP-1 IC50): 0.6 nM

CC#CCOc1ccc(S(=O)(=O)NC(C(=O)NO)c2ccc(OCCNC)cc2)cc1 (centres unmarked) [Example 204]
IC50 (MMP-1; MMP-1 IC50): ~10000 nM

CC#CCOc1ccc(S(=O)(=O)N2CCNCCC2C(=O)NO)cc1 (centres unmarked) [Example 292, 4-{[4-(2-Butynyloxy)phenyl]sulfonyl}-N-hydroxy-1,4-diazepane-5-carboxamide]
IC50 ([1]; read-out: TACE IC50): 24 nM
IC50 (MMP-13; read-out: MMP-13 IC50): 33 nM
IC50 (MMP-1; read-out: MMP-1 IC50): 274 nM

CCC#CCOc1ccc(S(=O)(=O)N2CCSC(C)(C)[C@@H]2C(=O)NO)cc1 [Example 259, (3S)-N-Hydroxy-2,2-dimethyl-4-{[4-(2-pentynyloxy)phenyl]sulfonyl}-3-thiomorpholine Carboxamide]
IC50 ([1]; Table 9, read-out: TACE IC50): 28 nM
IC50 (MMP-13; Table 9, read-out: MMP-13 IC50): 5 nM
IC50 (MMP-1; Table 9, read-out: MMP-1 IC50): 5.9 nM

CC#CCOc1ccc(S(=O)(=O)N2C[C@H](CC(N)=O)SC(C)(C)[C@@H]2C(=O)NO)cc1 [Example 280, (3S,6S)-6-(2-Amino-2-oxoethyl)-4-{[4-(2-butynyloxy)phenyl]sulfonyl}-N-hydroxy-2,2-dimethyl-3-thiomorpholinecarboxamide]
IC50 ([1]; Table 11, read-out: TACE IC50): 42 nM
IC50 (MMP-13; [2]): 29 nM
IC50 (MMP-1; Table 11, read-out: MMP-1 IC50): 35 nM

CC#CCOc1ccc(S(=O)(=O)NC(C(=O)NO)c2ccc(OCCN3CCCC3)cc2)cc1 (centres unmarked) [Example 205, 2-({[4-(2-Butynyloxy)phenyl]sulfonyl}amino)-N-hydroxy-2-{4-[2-(1-pyrrolidinyl)ethoxy]phenyl}acetamide]
IC50 ([1]; read-out: TACE IC50): 24 nM
IC50 (MMP-13; read-out: MMP-13 IC50): 146 nM
IC50 (MMP-1; read-out: MMP-1 IC50): ~10000 nM

CC#CCOc1ccc(S(=O)(=O)N2C[C@H](CC(=O)NCCN(C)C)SC(C)(C)[C@@H]2C(=O)NO)cc1 [Example 284, (3S,6S)-4-{[4-(2-Butynyloxy)phenyl]sulfonyl}-6-(2-{[2-(dimethylamino)ethyl]amino}-2-oxoethyl)-N-hydroxy-2,2-dimethyl-3-thiomorpholinecarboxamide]
IC50 ([1]; Table 11, read-out: TACE IC50): 125 nM
IC50 (MMP-13; [2]): 76 nM
IC50 (MMP-1; Table 11, read-out: MMP-1 IC50): 31 nM

CC#CCOc1ccc(S(=O)(=O)N[C@H](CCCCNC(=O)c2ccccc2OC)C(=O)NO)cc1 [Example 360, N-[(5R)-5-({[4-(But-2-ynyloxy)phenyl]sulfonyl}amino)-6-(hydroxyamino)-6-oxohexyl]-2-methoxybenzamide]
IC50 ([1]; IC 50 nM (In Vitro Inhibition of TACE), Table 15): 4.97 nM

Source: patent publication US6716833B2, “Acetylenic α-amino acid-based sulfonamide hydroxamic acid tace inhibitors” (priority 1999, dated 2004)
